The values that follow come from patent US20250262146A1, “PLATFORM NANOPARTICLE TECHNOLOGY FOR SUSTAINED DELIVERY OF HYDROPHOBIC DRUGS” (UNIVERSITY OF MARYLAND, BALTIMORE, priority 2022, published 2025).

The nature of data set [1]: Water solubility of ART631, alone and loaded into nanogels. The note with it: drug without nanogel. The data set is classed as physicochemical.
The subject of data set [2] is 9 human leukemia cell lines. Conditions: 9 human leukemia cell lines in vitro; cited from earlier work.
Data set [3] concerns MOLM14 human acute myeloid cells. As to the kind of experiment: MTT cytotoxicity assay, MOLM14. The data set is classed as cell-based. The note with it: concentration 0.0025 mg/mL. As for the experimental part:
The MOLM14 AML cell line, MV4;11, and THP1 cell lines were cultured and incubated in RPMI 1640 medium with 10% FBS at 37° C. and air containing 5% CO2. When the cells reached about 70% confluency, the cells were split with a density of 40,000 cells per cm^2. Adult Retinal Pigment Epithelial (ARPE-19) cells were grown in Dulbecco's Modified Eagle Medium (DMEM)/F12 (1:1) with 10% FBS and 1% Penicillin-Streptomycin (Pen-Strep). Dental Pulp Stem Cells (DPSCs) were grown in DMEM with glutamine and 10% FBS and 1% Pen-Strep. A Hemolysis assay kit was purchased from Creative Biolabs™.
The cytotoxicity of plain nanogels, plain SDS nanogels and 2, 5, 10 and 15 wt % ART631-loaded NanoART631 were assessed using thiazolyl blue tetrazolium bromide (MTT) and WST1 assays against MOLM14 human acute myeloid cells, MV4;11 cells, THP1 cells, normal adult retinal pigment epithelium-19 (ARPE-19) cells, and dental pulp stem cells (DPSCs). […] Pure ART631, ART838, 5 and 10 wt % NanoART631 IC50 were determined by adding 5e^−6, 5e^−5, 5e^−4, 6.25e^−4, 0.001, 0.0025, 0.005, 0.01, 0.05, 0.1, 0.2, 0.5, 1, 5, 10 mg·mL-1 of the formulation to MOLM14 AML cells. […] Absorbance was read at 570 nm using a BioTek™ cytation 5 microplate reader for all experiments after removing all the wells contents and then dissolving the formazan crystals in 150 μL of DMSO. […]
On the technique in general: Tetrazolium dyes change colour on reduction, which living cells bring about.

Turning to `C=CCO/N=C(/C[C@H]1O[C@@H]2O[C@@]3(C)CC[C@H]4[C@H](C)CC[C@@H]([C@H]1C)[C@@]24OO3)[C@H]1O[C@@H]2O[C@@]3(C)CC[C@H]4[C@H](C)CC[C@@H]([C@H]1C)[C@@]24OO3` [ART631], the solubility in data set [1] was under 10 µg/mL. Moreover, the IC50 in data set [2] was under 0.045 µM. The MOLM14 cells killed in data set [3] was determined as 67%.

For the compound `C[C@@H]1CCC2[C@@H](C)[C@@H](CC(COP(=O)(Oc3ccccc3)Oc3ccccc3)C[C@H]3O[C@@H]4O[C@@]5(C)CCC6[C@H](C)CCC([C@H]3C)[C@]64OO5)O[C@@H]3O[C@@]4(C)CCC1[C@@]23OO4` (stereo partly shown) [ART838], the MOLM14 cells killed in data set [3] is 64%.

By solubility is commonly meant the concentration that dissolves in the medium under given conditions. Low readings indicate a poorly soluble substance, high ones a readily soluble substance. As usually defined, the IC50 is the concentration at which inhibition is half-maximal.
